As usually defined, the IC50 is the concentration that gives 50% inhibition. A low value points to greater potency in that assay.

Structures can show the parent of a compound that is named as a salt.

Among the data in patent publication US5185349A, “Substituted amide ACAT inhibitors lactone derivatives” (priority 1991, dated 1993) are IC50 values, retold here.

The assay concerns the target T1, acyl-CoA: cholesterol acyltransferase (ACAT) (Oryctolagus cuniculus, UniProt G1SFD9).
T1 construct: in a tissue preparation containing rabbit intestinal microsomes; from tissue; host or cells: rabbit intestine, microsomes
T1 sequence (G1SFD9 1-524): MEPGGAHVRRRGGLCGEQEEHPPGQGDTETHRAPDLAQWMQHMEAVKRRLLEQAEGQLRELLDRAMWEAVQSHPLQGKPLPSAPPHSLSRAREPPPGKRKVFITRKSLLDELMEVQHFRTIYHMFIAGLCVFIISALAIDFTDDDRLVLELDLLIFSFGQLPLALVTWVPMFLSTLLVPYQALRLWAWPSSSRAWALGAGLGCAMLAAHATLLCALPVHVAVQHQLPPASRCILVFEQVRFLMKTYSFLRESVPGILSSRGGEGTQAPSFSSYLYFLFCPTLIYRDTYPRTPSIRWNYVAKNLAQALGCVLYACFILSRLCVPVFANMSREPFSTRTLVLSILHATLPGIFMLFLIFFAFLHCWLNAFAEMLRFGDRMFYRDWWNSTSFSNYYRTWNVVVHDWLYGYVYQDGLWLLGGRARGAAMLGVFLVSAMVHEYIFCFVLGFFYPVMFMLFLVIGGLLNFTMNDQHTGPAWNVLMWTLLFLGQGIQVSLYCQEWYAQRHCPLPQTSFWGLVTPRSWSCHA
Description: in vitro ACAT inhibition test (radiolabeled cholesterol oleate formed from radiolabeled oleic acid, rabbit intestinal microsomes). Type of assay: biochemical. Conditions: concentration required to inhibit the activity of the enzyme by 50%. On the procedure: The ability of representative compounds of the present invention to inhibit ACAT was measured using an in vitro test more fully described in F. J. Field and R. G. Salone, Biochemica et Biophysica 712:557-570 (1982). The test assesses the ability of a test compound to inhibit the acylation of cholesterol by oleic acid by measuring the amount of radiolabeled cholesterol oleate formed from radiolabeled oleic acid in a tissue preparation containing rabbit intestinal microsomes.
The data appear in Table 1 where they are expressed as IC50 values; i.e., the concentration of test compound required to inhibit the activity of the enzyme by 50%.
The compound `CCCCCCCC1CC(C(=O)Nc2c(C(C)C)cccc2C(C)C)C(=O)O1` (centres unmarked) [Example 2, N-[2,6-bis(1-methylethyl)phenyl]-5-heptyltetrahydro-2-oxo-3-furancarboxamide] had an IC50 of 260 nM.

For `CCCCCCC1CCC(C(=O)Nc2c(C(C)C)cccc2C(C)C)C(=O)O1` (centres unmarked) [Example 3, N-[2,6-bis(1-methylethyl)phenyl]-6-hexyltetrahydro-2-oxo-2H-pyran-3-carboxamide], the IC50 is 404 nM.

For `CC(C)c1cccc(C(C)C)c1NC(=O)C(CC(O)c1ccc(F)cc1)C(=O)O` (stereo not drawn) [Example 7, γ-[2,6-bis(1-methylethyl)phenyl]-amino]carbonyl]-4-fluoro-α-hydroxybenzenebutanoic acid monosodium salt], the IC50 was 1330 nM.

In turn, `CC(C)c1cccc(C(C)C)c1NC(=O)C1CC(c2ccc(F)cc2)OC1=O` (centres unmarked) [Example 1, N-[2,6-bis(1-methylethyl)phenyl]-5-(4-fluorophenyl)tetrahydro-2-oxo-3-furancarboxamide] showed a concentration for half-maximal inhibition (IC50) of 587 nM.

`CCCCCCCC1CCC(C(=O)Nc2c(C(C)C)cccc2C(C)C)C(=O)O1` (centres unmarked) [Example 4, N-[2,6-bis(1-methylethyl)phenyl]-6-heptyltetrahydro-2-oxo-2H-pyran-3-carboxamide]: the IC50 came to 336 nM.
